Here are results for 3 molecules from article PMC4814904, “Redox proteins of hydroxylating bacterial dioxygenases establish a regulatory cascade that prevents gratuitous induction of tetralin biodegradation genes” (Scientific Reports, 2016).

The target of assay [1] is T1, ThnA4 (ThnA4-His6), NAD(P)H-dependent ferredoxin reductase of tetralin dioxygenase (Sphingopyxis macrogoltabida, UniProt Q8GJE9).
T1 construct: full length, 339 residues, C-terminal His6 (pET23b, plasmid pMPO784), E. coli NCM631 host; plant-type [2Fe-2S]; FAD-reconstituted
T1 sequence (Q8GJE9 entry or part of it): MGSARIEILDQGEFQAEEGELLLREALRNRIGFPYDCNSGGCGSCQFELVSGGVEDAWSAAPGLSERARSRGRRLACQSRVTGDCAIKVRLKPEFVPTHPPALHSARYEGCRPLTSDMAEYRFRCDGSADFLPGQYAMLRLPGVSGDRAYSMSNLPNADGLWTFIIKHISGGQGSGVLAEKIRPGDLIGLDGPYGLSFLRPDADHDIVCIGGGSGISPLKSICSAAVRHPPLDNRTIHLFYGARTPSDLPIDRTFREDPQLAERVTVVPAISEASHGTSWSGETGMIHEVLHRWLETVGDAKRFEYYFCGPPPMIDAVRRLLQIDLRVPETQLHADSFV
The assay is described as follows: UV-visible spectrum after FAD reconstitution. The conditions noted are these: 2 mM FAD added during cell disruption; FAD partly lost during purification. The format is binding.

For assay [2], the target named is T1, ThnA4 (ThnA4-His6), NAD(P)H-dependent ferredoxin reductase of tetralin dioxygenase. The assay is described as follows: stopped-flow pre-steady-state reduction of ThnA4ox, fit of kA→B. The note with it: oxidized enzyme, potassium phosphate 50 mM pH 7.4, NaCl 10 mM, glycerine 5%, 15 °C, hydride donor. It counts as biochemical.

Like-named read-outs stand apart in the source and are kept apart here.

`Cc1cc2nc3c(=O)[nH]c(=O)nc-3n(C[C@H](O)[C@H](O)[C@H](O)COP(=O)(O)OP(=O)(O)OC[C@H]3O[C@@H](n4cnc5c(N)ncnc54)[C@H](O)[C@@H]3O)c2cc1C` [FAD]: the “UV-visible spectrum after FAD reconstitution” value in assay [1] is “reconstituted ThnA4-His6 contains the expected FAD and [2Fe-2S] redox centers”.

`NC(=O)C1=CN([C@@H]2O[C@H](COP(=O)(O)OP(=O)(O)OC[C@H]3O[C@@H](n4cnc5c(N)ncnc54)[C@H](O)[C@@H]3O)[C@@H](O)[C@H]2O)C=CC1` [NADH]: the Kd in assay [2] (upper limit estimated from saturation profile, read-out: Kd^NADH) is under 0.4 µM.

For `NC(=O)C1=CN([C@@H]2O[C@H](COP(=O)(O)OP(=O)(O)OC[C@H]3O[C@@H](n4cnc5c(N)ncnc54)[C@H](OP(=O)(O)O)[C@@H]3O)[C@@H](O)[C@H]2O)C=CC1` [NADPH], the Kd in assay [2] (read-out: Kd^NADPH) was found to be 54 ± 13 µM.
